Experimental data published in patent publication US20240343728A1, “COMPOUNDS THAT INHIBIT PI3K ISOFORM ALPHA AND METHODS FOR TREATING CANCER” (Scorpion Therapeutics, Inc., priority 2021, published 2024).

tested on: T47D pAKT; test: Homogenous Time-Resolved Fluorescence (HTRF) Assay pAKT-T47D; format: cell-based; settings: Homo sapiens; T47D.1 cell line, PI3Kα H1047R mutation present, HTRF detection pAKT (S473), timepoint 1 hour
Method: Homogenous Time-Resolved Fluorescence (HTRF) Assay—pAKT-T47D
Compounds were assayed using homogeneous time-resolved fluorescence (HTRF).
Gibco RPMI 1640 Medium, no phenol red; Gibco RPMI 1640 Medium; Gibco Trypsin-EDTA (0.5%), no phenol red; Gibco DPBS; Trypan blue solution 0.4% (Corning); Avantor Seradigm Premium Grade Fetal Bovine Serum (FBS); Greiner 784080-384 well TC treated white plates; pAKT (Ser473) HTRF; Gibco Insulin, human recombinant, zinc solution; Gibco Recovery Cell Culture Freezing Medium; Countess II FL Automated Cell Counter (ThermoFisher); Countess II Slides (ThermoFisher); Microscope; and PHERAstar FSX Microplate Reader (BMG LABTECH, Inc.).
The scinamic cell line ID was T47D.1, the HTRF detection was pAKT (S473), a PI3Kα H1047R mutation was present, the seeding density was 5000, the timepoint was 1 hour, and the medium used was RPMI+10% FBS (no phenol red)+0.2 units/ml bovine insulin.
The procedure was as follows: • 1. Prepared ARP: • a. Stamped 12.5 nL from 10 mM source plate to destination plate using Echo. Sealed plate immediately and froze at −20° C. if it was not used on the same day. • b. If a frozen ARP was used, the plate was thawed and spun at 1000 rpm×1 min. • 2. Preparation of cells (adherent): • a. Aspirated media from cells. Washed cells with sterile 1×PBS. Aspirated PBS and added appropriate amount of Trypsin. • b. Once cells were fully trypsinized, added appropriate media to resuspend cells. Transferred cells to a 15 mL or 50 mL conical tube. • c. Counted cells on the Countess II Cell Counter. • 3. Plating of cells: • a. Prepared cells at appropriate plating density. Dispensed 12 μL of diluted cells per well of a Greiner 784080-384 well TC treated white plate using a Multidrop Combi to columns 1-23. Added 12 uL of appropriate phenol free media only to column 24. • b. Placed plates in 37° C. tissue culture incubator for appropriate treatment time (refer to “Assay” table). • 4. Prepared HTRF Lysis Buffer • a. Calculate the amount of HTRF lysis buffer master mix needed to perform the desired experiments plus any extra dead volume required for dispensing (4 μL required per well). Dilute the Blocking Reagent into 4× Lysis Buffer at a ratio of 1:25 (i.e. 0.1 mL Blocking Reagent Solution plus 2.4 mL 4× Lysis Buffer). • b. Add 4 uL Lysis buffer master mix to all wells with sample or DMSO. Centrifuge the plates for 1 minute at 1000 rpm. • c. Incubate at room temperature for 30 minutes. • 5. Prepared HTRF Antibody • a. Calculated the amount of HTRF antibody master mix needed to perform the desired experiments plus any extra dead volume required for dispensing ([…]). Eu Cryptate antibody and d2 antibody were added to detection buffer each at a ratio of 1:40 (i.e. 100 μL Eu Cryptate+100 μL d2 Cryptate+3800 μL detection buffer). • b. 4 μL of antibody master mix was added to each well including the media only column 24. • c. Centrifuged the plates for 1 minute at 1000 rpm. Placed lid on and created a “humidity chamber” by placing the plates into a ziplock bag with wet paper towels or something similar and incubated overnight at room temperature, keeping away from light.
• 6. Measured on the PHERAstar/Envision using the HTRF protocol. When plates were read, all wells were read.

| SMILES | IC50 |
| --- | --- |
| Cc1c([C@H](Nc2nc3nc(N)ncc3[nH]2)C(F)(F)F)oc2ccc(F)cc12 [Compound 7b, (S)-N^8-(2,2,2-trifluoro-1-(5-fluoro-3-methylbenzofuran-2-yl)ethyl)-7H-purine-2,8-diamine] | 200 to 500 nM |
| Cc1c([C@@H](Nc2nc3ccc(C#N)cc3[nH]2)C(C)C)oc2ccc(F)cc12 [Compound 1, (S)-2-((1-(5-fluoro-3-methylbenzofuran-2-yl)-2-methylpropyl)amino)-1H-benzo[d]imidazole-6-carbonitrile] | ≥ 500 nM |
| Cc1c([C@@H](Nc2nc3cc(S(C)(=O)=O)cnc3[nH]2)C(F)(F)F)oc2ccc(F)cc12 [Compound 5a, (R)-6-(methylsulfonyl)-N-(2,2,2-trifluoro-1-(5-fluoro-3-methylbenzofuran-2-yl)ethyl)-3H-imidazo[4,5-b]pyridin-2-amine] | 200 to 500 nM |
| Cc1c([C@@H](Nc2nc3ccc(C(N)=O)cc3[nH]2)C(C)C)oc2ccc(F)cc12 [Compound 2, (S)-2-((1-(5-fluoro-3-methylbenzofuran-2-yl)-2-methylpropyl)amino)-1H-benzo[d]imidazole-6-carboxamide] | 200 to 500 nM |
| Cc1c(C(Nc2nc3cc(S(C)(=O)=O)ccc3[nH]2)C(F)(F)F)oc2ccc(F)cc12 (racemic) [Compound 6b, 5-(methylsulfonyl)-N-(2,2,2-trifluoro-1-(5-fluoro-3-methylbenzofuran-2-yl)ethyl)-1H-benzo[d]imidazol-2-amine] | 200 to 500 nM |
| Cc1c([C@@H](Nc2nc3ccc(S(N)(=O)=O)cc3[nH]2)C(C)C)oc2ccc(F)cc12 [Compound 3, (S)-2-((1-(5-fluoro-3-methylbenzofuran-2-yl)-2-methylpropyl)amino)-1H-benzo[d]imidazole-6-sulfonamide] | < 200 nM |
| Cc1c([C@@H](Nc2nc3ccc(S(C)(=O)=O)cc3[nH]2)C(C)C)oc2ccc(F)cc12 [Compound 4, (S)-N-(1-(5-fluoro-3-methylbenzofuran-2-yl)-2-methylpropyl)-6-(methylsulfonyl)-1H-benzo[d]imidazol-2-amine] | < 200 nM |
